Test results published in patent US20130122541A1, “MICROORGANISM PRODUCTION OF HIGH-VALUE CHEMICAL PRODUCTS, AND RELATED COMPOSITIONS, METHODS AND SYSTEMS” (The Regents of the University of Colorado, priority 2010, published 2013).
Like-named read-outs stand apart in the source and are kept apart here.

Tests used:
Assay in all cases: microbe, parasite or virus in culture
[1] = tested on: Yeast strains (S288C background); assay type: cell-based, Saccharomyces cerevisiae; settings: for average MIC Assay Result (g/L 3-HP): MIC of 3-HP; for average MIC Assay Result (g/L 3-HP) / MIC: S288C, SD media plus the named supplement(s); for MIC: Saccharomyces cerevisiae, read-out: Average MIC Assay Result (g/L 3-HP), MIC of 3-HP
Experimental: The minimum inhibitory concentration (MIC) was determined aerobically in a 96 well-plate format. […] Media supplements were added according to levels reported in the Supplements Table, where specified. Overnight cultures of strains were grown in triplicate in 5 mL SD media with vitamins (Methods in Enzymology vol. 350, page 17 (2002)). A 1% (v/v) inoculum was introduced into a 5 ml culture of SD minimal media without vitamins. After the cells reached mid-exponential phase, the culture was diluted to an OD600 of 0.200. The cells were further diluted 1:5 and a 10 μL aliquot was used to inoculate each well of a 96 well plate (˜10^4 cells per well) to total volume of 100 uL. […] Plates were incubated for 72 hours at 30 C.

[2] = tested on: Yeast strains (S288C background); assay type: cell-based, Saccharomyces cerevisiae; settings: for average MIC Assay Result (g/L 3-HP): MIC of 3-HP; for average MIC Assay Result (g/L 3-HP) / MIC: S288C, SD media plus the named supplement(s); for MIC: Saccharomyces cerevisiae, read-out: Average MIC Assay Result (g/L 3-HP), MIC of 3-HP; remark: listed apart in the source
Experimental: The minimum inhibitory concentration (MIC) was determined anaerobically in a 96 well-plate format. […] A 1% (v/v) inoculum was introduced into a 5 ml culture of SD minimal media without vitamins. After the cells reached mid-exponential phase, the culture was diluted to an OD600 of 0.200. The cells were further diluted 1:5 and a 10 μL aliquot was used to inoculate each well of a 96 well plate (˜10^4 cells per well) to total volume of 100 uL. […] Plates were incubated for 72 hours at 30 C. […] Plates were sealed in biobag anaerobic chambers that contained gas generators for anaerobic conditions and incubated for 72 hours at 30 C.

E. coli [3] = assay type: cell-based
Experimental: (§1) For MIC evaluations, the final results are expressed in chemical agent concentrations determined by analysis of the stock solution by HPLC (i.e., see Subsection IIIb).
(§2) The minimum inhibitory concentration (MIC) was determined aerobically in a 96 well-plate format. […] Media supplements were added according to levels reported in the Supplements Table, where specified. Overnight cultures of strains were grown in triplicate in 5 mL LB (with antibiotic where appropriate). A 1% (v/v) inoculum was introduced into a 5 ml culture of M9 minimal media.

E. coli [4] = assay type: cell-based; settings: anaerobic; for % Increase Over Control: 3-HP MIC with named supplement(s) vs BW25113 in M9 without supplement; for MIC Assay Result (g/L 3-HP): MIC of 3-HP, BW25113, M9 media plus the named supplement(s), 24-hour
Experimental: as §1
as §2, with “anaerobically” for “aerobically”

[5] = 3-HP MIC with named supplement(s) vs S288C in SD without supplement, aerobic
[6] = 3-HP MIC with named supplement(s) vs S288C in SD without supplement, anaerobic
[7] = MIC of 3-HP for strain BW25113, M9 media with the named supplement(s), aerobic, 24-hour MIC evaluation
[8] = increase of 3-HP MIC over BW25113 in M9 without supplements, M9 media with the named supplement(s), aerobic

Structure (SMILES) | % Increase Over Control [2, 6] [%] | average MIC Assay Result (g/L 3-HP) ([2]; anaerobic) [g/L] | average MIC Assay Result (g/L 3-HP) (E. coli [3]; [7]) | % Increase Over Control (E. coli [3]; [8]) [%] | also measured
CCC(=O)C(=O)O [2-oxobutyrate (B)] | 2 | 38 | – | – | % Increase Over Control [1, 5]: 11%; average MIC Assay Result (g/L 3-HP) ([1]; aerobic): 50 g/L
N[C@@H](CC(=O)O)C(=O)O [Aspartate] | – | – | – | – | % Increase Over Control [1, 5]: 26%; MIC ([1]; aerobic): 57 g/L
O=C(O)O [Bicarbonate (C)] | 140 | 90 | 44 | 59 | –
NCCCCCN [Cadaverine (C)] | 60 | – | 35 | – | MIC ([2]; anaerobic): 60 g/L
NC(=O)NCCC[C@H](N)C(=O)O [Citrulline (C)] | 158 | 97 | 30 | 9 | % Increase Over Control [1, 5]: 28%; average MIC Assay Result (g/L 3-HP) ([1]; aerobic): 58 g/L
NC(=O)CC[C@H](N)C(=O)O [Glutamine (C)] | – | – | 30 | 9 | –
NCC(=O)O [Glycine (B)] | 60 | 60 | – | – | % Increase Over Control (E. coli [3]): 3%; average MIC Assay Result (g/L 3-HP) (E. coli [3]): 28 g/L 3-HP; % Increase Over Control [1, 5]: 11%; average MIC Assay Result (g/L 3-HP) ([1]; aerobic): 50 g/L
NC(CCS)C(=O)O (stereo not drawn) [Homocysteine (B)] | 7 | 40 | 30 | 9 | –
N[C@@H](CCO)C(=O)O [Homoserine (B)] | – | – | 35 | – | –
CC[C@H](C)[C@H](N)C(=O)O [Isoleucine (B)] | 2 | 38 | 32 | 17 | –
NCCCC[C@H](N)C(=O)O [Lysine (D)] | 20 | 45 | 37 | 33 | % Increase Over Control (E. coli [4]): 39%; MIC Assay Result (g/L 3-HP) (E. coli [4]): 41.7 g/L
NCCC[C@H](N)C(=O)O [Ornithine (C)] | – | – | 30 | 9 | –
N[C@@H](Cc1ccccc1)C(=O)O [Phenylalanine (A)] | 2 | – | 32 | 17 | MIC ([2]; anaerobic): 38 g/L
NCCCCN [Putrescine (C)] | – | – | – | – | average MIC Assay Result (g/L 3-HP) (E. coli [3]): 30 g/L 3-HP
NCCCCN [Putrescine(C)] | – | – | – | – | % Increase Over Control [1]: 22%; % Increase Over Control [2]: 56%
N[C@@H](CO)C(=O)O [Serine (B)] | 20 | 45 | 32 | 17 | % Increase Over Control (E. coli [4]): 7%; MIC Assay Result (g/L 3-HP) (E. coli [4]): 32.1 g/L
NCCCCNCCCN [Spermidine (C)] | 60 | – | 40 | – | MIC ([2]; anaerobic): 60 g/L
Nc1nc(=O)c2c([nH]1)NC[C@@H](CNc1ccc(C(=O)N[C@@H](CCC(=O)O)C(=O)O)cc1)N2 [Tetrahydrofolate (A)] | – | – | 30 | 9 | % Increase Over Control (E. coli [4]): 33%; MIC Assay Result (g/L 3-HP) (E. coli [4]): 40.0 g/L
C[C@@H](O)[C@H](N)C(=O)O [Threonine (B)] | 2 | – | 32 | – | MIC ([2]; anaerobic): 38 g/L
N[C@@H](Cc1c[nH]c2ccccc12)C(=O)O [Tryptophan (A)] | 47 | – | – | – | % Increase Over Control [1, 5]: 20%; MIC ([1]; aerobic): 54 g/L; MIC ([2]; anaerobic): 55 g/L
Nc1ccc(C(=O)O)cc1 [p-aminobenzoate (A)] | – | – | 35 | 27 | % Increase Over Control (E. coli [4]): 33%; MIC Assay Result (g/L 3-HP) (E. coli [4]): 40.0 g/L
